Structures can show the parent of a compound that is named as a salt. Where two headings read alike, the source gives them in different places. Each block holds one compound with its values, some of them ahead of it.
Molecular target: T1, His6-AspH315–758 (human aspartate/asparagine-β-hydroxylase, AspH) (Homo sapiens, UniProt Q12797)
T1 construct: N-Terminally His6-tagged human AspH315–758 (His6-AspH315–758) was produced in E. coli BL21 (DE3) cells; made in house; host or cells: E. coli BL21 (DE3), pET-28a(+) vector
T1 sequence (Q12797 315-758): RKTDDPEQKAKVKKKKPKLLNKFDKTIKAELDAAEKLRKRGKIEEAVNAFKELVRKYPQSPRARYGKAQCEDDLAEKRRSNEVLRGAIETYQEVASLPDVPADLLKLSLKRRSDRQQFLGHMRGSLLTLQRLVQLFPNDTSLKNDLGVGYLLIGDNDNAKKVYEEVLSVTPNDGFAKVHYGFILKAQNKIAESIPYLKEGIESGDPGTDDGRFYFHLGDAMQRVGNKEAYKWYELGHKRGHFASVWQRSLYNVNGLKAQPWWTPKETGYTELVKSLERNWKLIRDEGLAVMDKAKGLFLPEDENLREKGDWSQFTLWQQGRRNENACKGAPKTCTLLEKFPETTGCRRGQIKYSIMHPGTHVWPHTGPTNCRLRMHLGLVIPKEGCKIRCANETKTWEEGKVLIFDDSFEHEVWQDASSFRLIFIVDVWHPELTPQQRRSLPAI
Experiment: SPE-MS AspH inhibition assay (LOPAC screen at fixed 20 μM and IC50 dose-response), hydroxylation of cyclic peptide hFX-CP101–119
Type: biochemical
Conditions: for Plate 2 (% conversion) / Plate 2 (% inhibition) / inhibition at 20 µM / Plate 3 (% conversion): LOPAC compound at 20uM; for Plate 2 (% conversion) / Plate 3 (% conversion): conversion of substrate peptide; for Plate 2 (% inhibition) / inhibition at 20 µM: normalised to DMSO and 2,4-PDCA controls; for Plate 1 (% inhibition) / Plate 1 (% conversion): LOPAC compound at fixed 20 uM; for Plate 1 (% inhibition): plate 1, normalised to DMSO and 2,4-PDCA controls; for Plate 2 (% conversion) / Plate 2 (% inhibition) / inhibition at 20 µM: plate 2; for inhibition at 20 µM: read-out: Plate 2 (% inhibition); for Inhibition at 20 µM [%]: AspH activity, fixed compound concentration 20 μM, initial LOPAC screen, 0.5%v/v DMSO

[1] = LOPAC Plate 4, compound at 20 uM, substrate conversion

SMILES: COC(=O)c1c(C)[nH]c(C)c1C(=O)c1ccccc1Cc1ccccc1 [FPL 64176]
Plate 2 (% conversion): 38.85% | Plate 2 (% inhibition): -8.64%

SMILES: COc1ccc(C(=O)NCc2cccnc2)cc1C(=O)NCc1cccnc1 [Picotamide]
% conversion [1]: 30.17%

SMILES: CCN(CC)C(=S)SSC(=S)N(CC)CC [Tetraethylthiuram disulfide]
% conversion [1]: 22.31%

SMILES: c1ccc2c(c1)OCC(C1=NCCN1)O2 (stereo not drawn) [Idazoxan hydrochloride]
Plate 3 (% conversion): 39.66%

SMILES: CCCn1c(=O)c(C)cn2nc(N)nc12 [ICI 63,137]
% conversion: 30.53%

SMILES: Cl.Cl.O=c1ccc2[nH]cc(C3=CCNCC3)c2[nH]1 [CP-93129 dihydrochloride hydrate]
% conversion: 37.25% | % inhibition (LOPAC Plate 4, compound at 20 uM): -2.28%

SMILES: CCn1nc(C(=O)O)c(=O)c2cc3c(cc21)OCO3 [Cinoxacin]
Plate 1 (% inhibition): -6.95% | Plate 1 (% conversion) (substrate conversion): 38.21%

SMILES: CC1=C(C)C(=O)C(CCCCC#CCCCC#CCO)=C(C)C1=O [AA-861]
Plate 1 (% inhibition): -23.70% | Plate 1 (% conversion) (substrate conversion): 43.83%

SMILES: Fc1ccc(C(c2ccc(F)cc2)N2CCN(C/C=C/c3ccccc3)CC2)cc1 [Flunarizine dihydrochloride]
Plate 2 (% conversion): 46.32% | inhibition at 20 µM: -31%

SMILES: C=C[C@H]1C[N@@]2CC[C@H]1C[C@@H]2[C@@H](O)c1ccnc2ccc(OC)cc12 [Quinidine sulfate]
% conversion [1]: 33.25%

SMILES: Oc1ccc(/C=C/c2cc(O)cc(O)c2)cc1 [Resveratrol]
% conversion [1]: 34.33%

Next, values leading:

Plate 1 (% inhibition): 1.04% | Plate 1 (% conversion) (substrate conversion): 35.52%
SMILES: Cl.NC1(C(=O)O)CCCCC1

Plate 2 (% conversion): 37.85% | inhibition at 20 µM: -5.65%
SMILES: CCC1(C)CC(=O)NC1=O (stereo not drawn) [Ethosuximide]

Plate 3 (% conversion): 36.37%
SMILES: CN1CC(=O)NC1=NC(=O)Nc1cccc(Cl)c1 [Fenobam]

Plate 3 (% conversion): 31.17%
SMILES: O=C(/C=C/c1ccc(O)cc1)c1ccc(O)cc1O [Isoliquiritigenin]

Inhibition at 20 µM [%]: 97.5% | % conversion [1]: 3.21%
SMILES: O=C1c2c(O)cc(O)cc2O[C@H](c2ccc(O)c(O)c2)[C@H]1O (racemic) [(±)-Taxifolin, reference compound]

Plate 2 (% conversion): 36.91% | inhibition at 20 µM: -2.84%
SMILES: CCc1cccc2c3c([nH]c12)C(CC)(CC(=O)O)OCC3 (stereo not drawn) [Etodolac]

Plate 1 (% inhibition): 77.21% | Plate 1 (% conversion) (substrate conversion): 9.94%
SMILES: c1ccc2cc(-c3ncc[nH]3)ccc2c1 [Benazoline oxalate]

Plate 1 (% inhibition): 6.01% | Plate 1 (% conversion) (substrate conversion): 33.85%
SMILES: C[C@@H](O)[C@H]1C(=O)N2C(C(=O)O)=C(SCCN=CN)C[C@H]12 [Imipenem monohydrate]

inhibition at 20 µM: -3.76% | Plate 5 (% inhibition) (plate 5 (Pfitzer), test compounds at fixed 20 μM): -1.04% | Plate 5 (% conversion) (plate 5 (Pfitzer), test compounds at fixed 20 μM, mean conversion DMSO 32.88): 36.67%
SMILES: CN(CCOc1ccc(NS(C)(=O)=O)cc1)CCc1ccc(NS(C)(=O)=O)cc1 [Dofetilide]

Plate 2 (% conversion): 12.89% | Plate 2 (% inhibition): 68.90%
SMILES: O=C1c2ccccc2C(=O)c2c(NCCc3ccc(O)cc3)ccc(NCCc3ccc(O)cc3)c21 [JFD00244]

Plate 1 (% inhibition): -28.14% | Plate 1 (% conversion) (substrate conversion): 45.32%
SMILES: N=C(N)NC(=O)c1nc(Cl)c(N2CCCCCC2)nc1N [5-(N,N-hexamethylene)amiloride]

Plate 1 (% inhibition): 89.51% | Plate 1 (% conversion) (substrate conversion): 5.81%
SMILES: NC[C@H](O)c1ccc(O)c(O)c1.O=C(O)C(O)C(O)C(=O)O [L(-)-Norepinephrine bitartrate]

Plate 1 (% inhibition): 4.86% | Plate 1 (% conversion) (substrate conversion): 34.24%
SMILES: NC(=O)c1cc(N2CC2)c([N+](=O)[O-])cc1[N+](=O)[O-] [CB 1954]

Inhibition at 20 µM [%]: 103.3% | % conversion [1]: 1.22%
SMILES: Cc1ccc(C(=O)Nc2ccc(S(=O)(=O)[O-])c3cc(S(=O)(=O)[O-])cc(S(=O)(=O)[O-])c23)cc1NC(=O)c1cccc(NC(=O)Nc2cccc(C(=O)Nc3cc(C(=O)Nc4ccc(S(=O)(=O)[O-])c5cc(S(=O)(=O)[O-])cc(S(=O)(=O)[O-])c45)ccc3C)c2)c1.[Na+].[Na+].[Na+].[Na+].[Na+].[Na+] [Suramin sodium salt, reference compound]

Plate 1 (% inhibition): -13.45% | Plate 1 (% conversion) (substrate conversion): 40.39%
SMILES: CC[C@H]1OC(=O)[C@H](C)[C@@H](O[C@H]2C[C@@](C)(OC)[C@@H](O)[C@H](C)O2)[C@H](C)[C@@H](O[C@@H]2O[C@H](C)C[C@H](N(C)C)[C@H]2O)[C@](C)(O)C[C@@H](C)CN(C)[C@H](C)[C@@H](O)[C@]1(C)O [Azithromycin dihydrate]

From article PMC7251097, “Aspartate/asparagine-β-hydroxylase: a high-throughput mass spectrometric assay for discovery of small molecule inhibitors” (Scientific Reports, 2020)
